ChEMBL document CHEMBL3885881, “DrugMatrix”

Species on record: Rattus norvegicus
Assay: DrugMatrix - Regimen: Daily Repeat
Type: toxicity, organism-based, Sprague-Dawley
Set-up: regimen Daily Repeat, gender Male, age 6-8 weeks
Conditions: in vivo, iv, 4 mg/kg, dose level High, vehicle 100 % SALINE; for ABSOLUTE BASOPHIL / ABSOLUTE EOSINOPHIL / ABSOLUTE LYMPHOCYTE / ABSOLUTE MONOCYTE / ABSOLUTE SEGMENTED NEUTROPHIL / BASOPHIL / EOSINOPHIL / ERYTHROCYTE COUNT / HEMATOCRIT / HEMOGLOBIN / LEUKOCYTE COUNT / LYMPHOCYTE / MEAN CORPUSCULAR HEMOGLOBIN / MEAN CORPUSCULAR HEMOGLOBIN CONCENTRATION / MEAN CORPUSCULAR VOLUME / MONOCYTE / NEUTROPHIL / NUCLEATED RED BLOOD CELLS / PLATELET COUNT: tissue Blood; for ALANINE AMINOTRANSFERASE / ALBUMIN / ALKALINE PHOSPHATASE / ASPARTATE AMINOTRANSFERASE / BLOOD UREA NITROGEN / CARBON DIOXIDE / CHLORIDE / CHOLESTEROL / CREATINE PHOSPHOKINASE / CREATININE / GLUCOSE / LACTATE DEHYDROGENASE / LIPASE / PHOSPHORUS / POTASSIUM / SODIUM / TOTAL BILIRUBIN / TOTAL PROTEIN / URIC ACID: tissue Plasma

`CCCCN1CCCC[C@H]1C(=O)Nc1c(C)cccc1C` [LEVOBUPIVACAINE] was tested, and the “ABSOLUTE BASOPHIL” value (72 h, time 3 day) was 0 CELLS/uL, the “ABSOLUTE EOSINOPHIL” value (72 h, time 3 day) was 0 CELLS/uL and the “ABSOLUTE LYMPHOCYTE” value (72 h, time 3 day) was 11600.33 CELLS/uL. The “ABSOLUTE MONOCYTE” value (72 h, time 3 day) was 405 CELLS/uL, the “ABSOLUTE SEGMENTED NEUTROPHIL” value (72 h, time 3 day) was 1828 CELLS/uL and the BASOPHIL (72 h, time 3 day) was 0%. The EOSINOPHIL (72 h, time 3 day) was 0%, the “ERYTHROCYTE COUNT” value (72 h, time 3 day) was 5.58 x10E6/uL and the HEMATOCRIT (72 h, time 3 day) was 35.27%. For the same compound, the HEMOGLOBIN (72 h, time 3 day) was 13.37 G/DL, the “LEUKOCYTE COUNT” value (72 h, time 3 day) was 13.83 x10E3/uL and the LYMPHOCYTE (72 h, time 3 day) was 83.67%. The “MEAN CORPUSCULAR HEMOGLOBIN” value (72 h, time 3 day) was 23.93 pg, the “MEAN CORPUSCULAR HEMOGLOBIN CONCENTRATION” value (72 h, time 3 day) was 37.9 G/DL and the “MEAN CORPUSCULAR VOLUME” value (72 h, time 3 day) was 63.2 fL. For the same compound, the MONOCYTE (72 h, time 3 day) was 3%, the NEUTROPHIL (72 h, time 3 day) was 13.33% and the “NUCLEATED RED BLOOD CELLS” value (72 h, time 3 day) was 0.33 /100WBC. The “PLATELET COUNT” value (72 h, time 3 day) was 1307 x10E3/uL, the “ALANINE AMINOTRANSFERASE” value (72 h, time 3 day) was 41.33 u/L and the ALBUMIN (72 h, time 3 day) was 4.27 G/DL. For the same compound, the “ALKALINE PHOSPHATASE” value (72 h, time 3 day) was 430.67 u/L, the “ASPARTATE AMINOTRANSFERASE” value (72 h, time 3 day) was 83.33 u/L and the “BLOOD UREA NITROGEN” value (72 h, time 3 day) was 15.67 mg/dL. The “CARBON DIOXIDE” value (72 h, time 3 day) was 24.67 mmol/L, the CHLORIDE (72 h, time 3 day) was 105.67 MEQ/L and the CHOLESTEROL (72 h, time 3 day) was 62 mg/dL. For the same compound, the “CREATINE PHOSPHOKINASE” value (72 h, time 3 day) was 275.67 u/L, the CREATININE (72 h, time 3 day) was 0.23 mg/dL and the GLUCOSE (72 h, time 3 day) was 152 mg/dL. For the same compound, the “LACTATE DEHYDROGENASE” value (72 h, time 3 day) was 383 u/L, the LIPASE (72 h, time 3 day) was 8.67 u/L and the PHOSPHORUS (72 h, time 3 day) was 13.3 mg/dL. For the same compound, the POTASSIUM (72 h, time 3 day) was 6.04 MEQ/L, the SODIUM (72 h, time 3 day) was 146.8 MEQ/L and the “TOTAL BILIRUBIN” value (72 h, time 3 day) was 0.2 mg/dL. For the same compound, the “TOTAL PROTEIN” value (72 h, time 3 day) was 5.77 G/DL, the “URIC ACID” value (72 h, time 3 day) was 1.43 mg/dL and the “ABSOLUTE BASOPHIL” value (120 h, time 5 day) was 0 CELLS/uL. The “ABSOLUTE EOSINOPHIL” value (120 h, time 5 day) was 0 CELLS/uL, the “ABSOLUTE LYMPHOCYTE” value (120 h, time 5 day) was 14035 CELLS/uL and the “ABSOLUTE MONOCYTE” value (120 h, time 5 day) was 328 CELLS/uL. The “ABSOLUTE SEGMENTED NEUTROPHIL” value (120 h, time 5 day) was 2037 CELLS/uL, the BASOPHIL (120 h, time 5 day) was 0% and the EOSINOPHIL (120 h, time 5 day) was 0%. For the same compound, the “ERYTHROCYTE COUNT” value (120 h, time 5 day) was 5.6 x10E6/uL, the HEMATOCRIT (120 h, time 5 day) was 34.2% and the HEMOGLOBIN (120 h, time 5 day) was 13.05 G/DL. The “LEUKOCYTE COUNT” value (120 h, time 5 day) was 16.4 x10E3/uL, the LYMPHOCYTE (120 h, time 5 day) was 85.5% and the “MEAN CORPUSCULAR HEMOGLOBIN” value (120 h, time 5 day) was 23.3 pg. For the same compound, the “MEAN CORPUSCULAR HEMOGLOBIN CONCENTRATION” value (120 h, time 5 day) was 38.15 G/DL, the “MEAN CORPUSCULAR VOLUME” value (120 h, time 5 day) was 61.1 fL and the MONOCYTE (120 h, time 5 day) was 2%. For the same compound, the NEUTROPHIL (120 h, time 5 day) was 12.5%, the “NUCLEATED RED BLOOD CELLS” value (120 h, time 5 day) was 0.5 /100WBC and the “PLATELET COUNT” value (120 h, time 5 day) was 1167 x10E3/uL. For the same compound, the “ALANINE AMINOTRANSFERASE” value (120 h, time 5 day) was 38 u/L, the ALBUMIN (120 h, time 5 day) was 4.35 G/DL and the “ALKALINE PHOSPHATASE” value (120 h, time 5 day) was 311 u/L. For the same compound, the “ASPARTATE AMINOTRANSFERASE” value (120 h, time 5 day) was 72.5 u/L, the “BLOOD UREA NITROGEN” value (120 h, time 5 day) was 18 mg/dL and the “CARBON DIOXIDE” value (120 h, time 5 day) was 26.5 mmol/L. For the same compound, the CHLORIDE (120 h, time 5 day) was 103 MEQ/L, the CHOLESTEROL (120 h, time 5 day) was 57.5 mg/dL and the “CREATINE PHOSPHOKINASE” value (120 h, time 5 day) was 325.5 u/L. For the same compound, the CREATININE (120 h, time 5 day) was 0.17 mg/dL, the GLUCOSE (120 h, time 5 day) was 150.5 mg/dL and the “LACTATE DEHYDROGENASE” value (120 h, time 5 day) was 321.5 u/L. For the same compound, the LIPASE (120 h, time 5 day) was 8 u/L, the PHOSPHORUS (120 h, time 5 day) was 13.4 mg/dL and the POTASSIUM (120 h, time 5 day) was 6.04 MEQ/L. The SODIUM (120 h, time 5 day) was 146.65 MEQ/L, the “TOTAL BILIRUBIN” value (120 h, time 5 day) was 0.1 mg/dL and the “TOTAL PROTEIN” value (120 h, time 5 day) was 6.05 G/DL. The “URIC ACID” value (120 h, time 5 day) was 1.5 mg/dL.
